Source: PubChem BioAssay (NCI)
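Five compound concentrations were applied to cells in 96-well plates for 48 hours; endpoints were derived by simple linear interpolation of the resulting dose-response curve. The concentration for full growth arrest is given as TGI.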

How the values were obtained:
Test in all cases: growth of human tumour cells (NCI), 48 h
786-0 renal = system: 786-0 renal
A498 renal = system: A498 renal
A549 NSCLC = system: A549 NSCLC
BT-549 breast = system: BT-549 breast
CAKI-1 renal = system: CAKI-1 renal
CCRF-CEM leukemia = system: CCRF-CEM leukemia
COLO 205 colon = system: COLO 205 colon
DU-145 prostate = system: DU-145 prostate
EKVX NSCLC = system: EKVX NSCLC
HCC-2998 colon = system: HCC-2998 colon
HCT-116 colon = system: HCT-116 colon
HCT-15 colon = system: HCT-15 colon
HL-60(TB) leukemia = system: HL-60(TB) leukemia
HOP-62 NSCLC = system: HOP-62 NSCLC
HOP-92 NSCLC = system: HOP-92 NSCLC
HS 578T breast = system: HS 578T breast
HT29 colon = system: HT29 colon
IGROV1 ovarian = system: IGROV1 ovarian
K-562 leukemia = system: K-562 leukemia
KM12 colon = system: KM12 colon
LOX IMVI melanoma = system: LOX IMVI melanoma
M14 melanoma = system: M14 melanoma
MALME-3M melanoma = system: MALME-3M melanoma
MCF7 breast = system: MCF7 breast
MDA-MB-231 breast = system: MDA-MB-231 breast
MDA-MB-435 = system: MDA-MB-435
MDA-N = system: MDA-N
MOLT-4 leukemia = system: MOLT-4 leukemia
NCI-H226 lung = system: NCI-H226 lung
NCI-H23 lung = system: NCI-H23 lung
NCI-H460 lung = system: NCI-H460 lung
NCI/ADR-RES ovarian = system: NCI/ADR-RES ovarian
OVCAR-3 ovarian = system: OVCAR-3 ovarian
OVCAR-4 ovarian = system: OVCAR-4 ovarian
OVCAR-5 ovarian = system: OVCAR-5 ovarian
OVCAR-8 ovarian = system: OVCAR-8 ovarian
PC-3 prostate = system: PC-3 prostate
RPMI-8226 leukemia = system: RPMI-8226 leukemia
RXF 393 renal = system: RXF 393 renal
SF-268 CNS = system: SF-268 CNS
SF-295 CNS = system: SF-295 CNS
SF-539 CNS = system: SF-539 CNS
SK-MEL-2 melanoma = system: SK-MEL-2 melanoma
SK-MEL-28 melanoma = system: SK-MEL-28 melanoma
SK-MEL-5 melanoma = system: SK-MEL-5 melanoma
SK-OV-3 ovarian = system: SK-OV-3 ovarian
SN12C renal = system: SN12C renal
SNB-19 CNS = system: SNB-19 CNS
SNB-75 CNS = system: SNB-75 CNS
SR leukemia = system: SR leukemia
SW-620 colon = system: SW-620 colon
T-47D breast = system: T-47D breast
U251 CNS = system: U251 CNS
UACC-257 melanoma = system: UACC-257 melanoma
UACC-62 melanoma = system: UACC-62 melanoma
UO-31 renal = system: UO-31 renal
ACHN renal = system: ACHN renal
NCI-H522 lung = system: NCI-H522 lung
TK-10 renal = system: TK-10 renal

Compound: C=CCN1CCC(c2cc(C(=O)OCC)[nH]c2-c2cc(C)no2)C1=O (stereo not given)
- TGI (786-0 renal): > 100 µM
- TGI (A498 renal): > 100 µM
- TGI (A549 NSCLC): > 100 µM
- TGI (BT-549 breast): > 100 µM
- TGI (CAKI-1 renal): > 100 µM
- TGI (CCRF-CEM leukemia): > 100 µM
- TGI (COLO 205 colon): > 100 µM
- TGI (DU-145 prostate): > 100 µM
- TGI (EKVX NSCLC): > 100 µM
- TGI (HCC-2998 colon): > 100 µM
- TGI (HCT-116 colon): > 100 µM
- TGI (HCT-15 colon): > 100 µM
- TGI (HL-60(TB) leukemia): > 100 µM
- TGI (HOP-62 NSCLC): > 100 µM
- TGI (HOP-92 NSCLC): > 100 µM
- TGI (HS 578T breast): > 100 µM
- TGI (HT29 colon): > 100 µM
- TGI (IGROV1 ovarian): > 100 µM
- TGI (K-562 leukemia): > 100 µM
- TGI (KM12 colon): > 100 µM
- TGI (LOX IMVI melanoma): > 100 µM
- TGI (M14 melanoma): > 100 µM
- TGI (MALME-3M melanoma): > 100 µM
- TGI (MCF7 breast): > 100 µM
- TGI (MDA-MB-231 breast): > 100 µM
- TGI (MDA-MB-435): > 100 µM
- TGI (MDA-N): > 100 µM
- TGI (MOLT-4 leukemia): > 100 µM
- TGI (NCI-H226 lung): > 100 µM
- TGI (NCI-H23 lung): > 100 µM
- TGI (NCI-H460 lung): > 100 µM
- TGI (NCI/ADR-RES ovarian): > 100 µM
- TGI (OVCAR-3 ovarian): > 100 µM
- TGI (OVCAR-4 ovarian): > 100 µM
- TGI (OVCAR-5 ovarian): > 100 µM
- TGI (OVCAR-8 ovarian): > 100 µM
- TGI (PC-3 prostate): > 100 µM
- TGI (RPMI-8226 leukemia): > 100 µM
- TGI (RXF 393 renal): > 100 µM
- TGI (SF-268 CNS): > 100 µM
- TGI (SF-295 CNS): > 100 µM
- TGI (SF-539 CNS): > 100 µM
- TGI (SK-MEL-2 melanoma): > 100 µM
- TGI (SK-MEL-28 melanoma): > 100 µM
- TGI (SK-MEL-5 melanoma): > 100 µM
- TGI (SK-OV-3 ovarian): > 100 µM
- TGI (SN12C renal): > 100 µM
- TGI (SNB-19 CNS): > 100 µM
- TGI (SNB-75 CNS): > 100 µM
- TGI (SR leukemia): > 100 µM
- TGI (SW-620 colon): > 100 µM
- TGI (T-47D breast): > 100 µM
- TGI (U251 CNS): > 100 µM
- TGI (UACC-257 melanoma): > 100 µM
- TGI (UACC-62 melanoma): > 100 µM
- TGI (UO-31 renal): > 100 µM

Compound: COc1ccc2nc3ccc(OC)cc3c(SCCCl)c2c1
- TGI (786-0 renal): 30.1 µM
- TGI (A498 renal): > 91.5 µM
- TGI (A549 NSCLC): > 100 µM
- TGI (ACHN renal): > 100 µM
- TGI (BT-549 breast): > 100 µM
- TGI (CAKI-1 renal): 66.8 µM
- TGI (CCRF-CEM leukemia): 16 µM
- TGI (COLO 205 colon): > 72.3 µM
- TGI (DU-145 prostate): > 65 µM
- TGI (EKVX NSCLC): > 100 µM
- TGI (HCC-2998 colon): > 100 µM
- TGI (HCT-116 colon): > 43.5 µM
- TGI (HCT-15 colon): > 100 µM
- TGI (HL-60(TB) leukemia): > 21.1 µM
- TGI (HOP-62 NSCLC): > 78.3 µM
- TGI (HOP-92 NSCLC): > 42.2 µM
- TGI (HS 578T breast): > 100 µM
- TGI (HT29 colon): > 52.4 µM
- TGI (IGROV1 ovarian): > 100 µM
- TGI (K-562 leukemia): > 46.5 µM
- TGI (KM12 colon): > 71 µM
- TGI (LOX IMVI melanoma): 21.3 µM
- TGI (M14 melanoma): > 21.3 µM
- TGI (MALME-3M melanoma): > 100 µM
- TGI (MCF7 breast): > 47 µM
- TGI (MDA-MB-231 breast): 99.3 µM
- TGI (MDA-MB-435): > 49.5 µM
- TGI (MDA-N): > 100 µM
- TGI (MOLT-4 leukemia): 16.4 µM
- TGI (NCI-H226 lung): > 100 µM
- TGI (NCI-H23 lung): > 100 µM
- TGI (NCI-H460 lung): > 100 µM
- TGI (NCI-H522 lung): > 100 µM
- TGI (NCI/ADR-RES ovarian): > 58.7 µM
- TGI (OVCAR-3 ovarian): > 100 µM
- TGI (OVCAR-4 ovarian): > 85 µM
- TGI (OVCAR-5 ovarian): > 40.8 µM
- TGI (OVCAR-8 ovarian): > 35.2 µM
- TGI (PC-3 prostate): > 100 µM
- TGI (RPMI-8226 leukemia): 10.6 µM
- TGI (RXF 393 renal): > 48.1 µM
- TGI (SF-268 CNS): > 100 µM
- TGI (SF-295 CNS): > 100 µM
- TGI (SF-539 CNS): > 50.5 µM
- TGI (SK-MEL-2 melanoma): > 85.1 µM
- TGI (SK-MEL-28 melanoma): > 100 µM
- TGI (SK-MEL-5 melanoma): > 100 µM
- TGI (SK-OV-3 ovarian): > 100 µM
- TGI (SN12C renal): > 100 µM
- TGI (SNB-19 CNS): > 85.5 µM
- TGI (SNB-75 CNS): > 96.8 µM
- TGI (SR leukemia): 15.6 µM
- TGI (SW-620 colon): > 100 µM
- TGI (T-47D breast): > 97.2 µM
- TGI (TK-10 renal): > 100 µM
- TGI (U251 CNS): > 100 µM
- TGI (UACC-257 melanoma): > 100 µM
- TGI (UACC-62 melanoma): > 77.6 µM
- TGI (UO-31 renal): > 100 µM
